In US20100063065A1 (Inpharmatica Limited, priority 2005, published 2010):

Biological target: T1, PPARδ (Homo sapiens, UniProt Q03181)
T1 construct: fused to amino acids 147-441 of PPARδ downstream of CMV promoter; expressed in transfected cells; host or cells: HEK293 cells, transiently transfected with pFACMV-PPARδ using Fugene
T1 sequence (Q03181 147-441): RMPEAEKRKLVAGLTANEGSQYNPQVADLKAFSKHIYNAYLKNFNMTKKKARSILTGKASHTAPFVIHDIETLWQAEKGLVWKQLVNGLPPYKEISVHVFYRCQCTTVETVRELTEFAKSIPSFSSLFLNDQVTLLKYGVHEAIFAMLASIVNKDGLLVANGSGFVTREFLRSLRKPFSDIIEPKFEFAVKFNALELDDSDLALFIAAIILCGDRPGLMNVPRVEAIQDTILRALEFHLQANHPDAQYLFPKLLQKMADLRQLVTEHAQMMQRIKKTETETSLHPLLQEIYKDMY
Assay: Transactivation assay (PPARδ GAL4 assay) in transiently transfected HEK293 cells
Format: cell-based
Details: luciferase reporter
Procedure, shortened: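 HEK293 cells transiently co-transfected with GAL4 DBD (aa 1-147)–PPARδ (aa 147-441) fusion and 5×GAL4-luciferase reporter, then exposed 24 h to compound (final 0-30 μM) in OptiMEM at 37° C. Luminescence read; activity as percent of GW501516 control, EC50 from sigmoidal dose-response fit.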

Compound	EC50 (Table 1) [nM]	EC50 (Table 2) [nM]
CCc1cc(C(=O)c2ccc(Cl)cc2)c(NC(=O)C(C)N(C)CC(=O)O)s1 (stereo not shown) [Example 87, ({1-[3-(4-Chloro-benzoyl)-5-ethyl-thiophen-2-ylcarbamoyl]-ethyl}-methyl-amino)-acetic acid]	100 to 1000	
CCc1cc(C(=O)c2ccc(OC(F)(F)F)cc2)c(NC(=O)C2CCN(CC(=O)O)CC2)s1 [Example 177, {4-[5-Ethyl-3-(4-trifluoromethoxy-benzoyl)-thiophen-2-ylcarbamoyl]-piperidin-1-yl}-acetic acid]		1000 to 30000
CCc1cc(C(=O)c2ccc(OC(F)(F)F)cc2)c(NC(=O)CCCC(=O)O)s1 [Example 104, 4-[5-Ethyl-3-(4-trifluoromethoxy-benzoyl)-thiophen-2-ylcarbamoyl]-butyric acid]		100 to 1000
O=C(O)CSCC(=O)Nc1sc(C2CC2)cc1C(=O)c1ccc(F)cc1 [Example 64, {[5-Cyclopropyl-3-(4-fluoro-benzoyl)-thiophen-2-ylcarbamoyl]-methylsulfanyl}-acetic acid]	1000 to 30000	
CCc1cc(C(=O)c2ccc(OC)cc2)c(NC(=O)CSc2cccc(OCC(=O)O)c2)s1 [Example 88, (3-{[5-Ethyl-3-(4-methoxy-benzoyl)-thiophen-2-ylcarbamoyl]-methylsulfanyl}-phenoxy)-acetic acid]	1000 to 30000	
CCc1cc(C(=O)c2ccc(-c3ccc(F)cc3)cc2)c(NC(=O)CSCC(=O)O)s1 [Example 40, {[5-Ethyl-3-(4′-fluoro-biphenyl-4-carbonyl)-thiophen-2-ylcarbamoyl]-methylsulfanyl}-acetic acid]	< 100	
CCc1cc(C(=O)c2ccc(OC(F)(F)F)cc2)c(NC(=O)C(C)(C)SCC(=O)O)s1 [Example 107, {1-[5-Ethyl-3-(4-trifluoromethoxy-benzoyl)-thiophen-2-ylcarbamoyl]-1-methyl-ethylsulfanyl}-acetic acid]		100 to 1000
CCc1cc(C(=O)c2ccc(OC(F)(F)F)cc2)c(NC(=O)[C@H](C)SCC(=O)O)s1 [Example 195, {(S)-1-[5-Ethyl-3-(4-trifluoromethoxy-benzoyl)-thiophen-2-ylcarbamoyl]-ethylsulfanyl}-acetic acid]		< 100
CCc1cc(C(=O)c2ccc(OC(F)(F)F)cc2)c(NC(=O)C(NCC(=O)O)c2ccccc2)s1 (stereo not shown) [Example 122, ({[5-Ethyl-3-(4-trifluoromethoxy-benzoyl)-thiophen-2-ylcarbamoyl]-phenyl-methyl}-amino)-acetic acid]		100 to 1000
CCc1cc(C(=O)c2ccc(OC(F)(F)F)cc2)c(NC(=O)CN([C@@H](C)C(=O)O)S(C)(=O)=O)s1 [Example 126, (S)-2-({[5-Ethyl-3-(4-trifluoromethoxy-benzoyl)-thiophen-2-ylcarbamoyl]-methyl}-methanesulfonyl-amino)-propionic acid]		1000 to 30000
CCc1cc(C(=O)c2ccc(C)c(C)c2)c(NC(=O)CC2(CC(=O)O)CCCC2)s1 [Example 53, (1-{[3-(3,4-Dimethyl-benzoyl)-5-ethyl-thiophen-2-ylcarbamoyl]-methyl}-cyclopentyl)-acetic acid]	1000 to 30000	
CCc1cc(C(=O)c2ccc(OC(F)(F)F)cc2)c(NC(=O)CN2[C@@H](CC)CC[C@@H]2C(=O)O)s1 [Example 183, (2R,5S)-5-Ethyl-1-{[5-ethyl-3-(4-trifluoromethoxy-benzoyl)-thiophen-2-ylcarbamoyl]-methyl}-pyrrolidine-2-carboxylic acid]		< 100
CCc1cc(C(=O)c2ccc(Cl)c(Cl)c2)c(NC(=O)CC(C)(C)CC(=O)O)s1 [Example 30, 4-[3-(3,4-Dichloro-benzoyl)-5-ethyl-thiophen-2-ylcarbamoyl]-3,3-dimethyl-butyric acid]	1000 to 30000	
CCc1cc(C(=O)c2cccc(OC(F)(F)F)c2)c(NC(=O)CSCC(=O)O)s1 [Example 143, {[5-Ethyl-3-(3-trifluoromethoxy-benzoyl)-thiophen-2-ylcarbamoyl]-methylsulfanyl}-acetic acid]		1000 to 30000
CCc1cc(C(=O)c2ccc(OC)cc2)c(NC(=O)CCCCC(=O)O)s1 [Example 69, 5-[5-Ethyl-3-(4-methoxy-benzoyl)-thiophen-2-ylcarbamoyl]-pentanoic acid]	1000 to 30000	
CCc1cc(C(=O)c2ccc(OC(F)(F)F)cc2)c(NC(=O)CNC(CC)C(=O)O)s1 (stereo not shown) [Example 80, 2-({[5-Ethyl-3-(4-trifluoromethoxy-benzoyl)-thiophen-2-ylcarbamoyl]-methyl}-amino)-butyric acid]	< 100	
CCc1cc(C(=O)c2ccccc2)c(NC(=O)CSC(C)(C)C(=O)O)s1 [Example 15, 2-[(3-Benzoyl-5-ethyl-thiophen-2-ylcarbamoyl)-methylsulfanyl]-2-methyl-propionic acid]	1000 to 30000	
CCc1cc(C(=O)c2ccc(OC(F)(F)F)cc2)c(NC(=O)c2cccc(OCC(=O)O)c2)s1 [Example 100, {3-[5-Ethyl-3-(4-trifluoromethoxy-benzoyl)-thiophen-2-ylcarbamoyl]-phenoxy}-acetic acid]	100 to 1000	
CCc1cc(C(=O)c2ccc(OC(F)(F)F)cc2)c(NC(=O)CN2CCC[C@]2(C)C(=O)O)s1 [Example 172, (R)-1-{[5-Ethyl-3-(4-trifluoromethoxy-benzoyl)-thiophen-2-ylcarbamoyl]-methyl}-2-methyl-pyrrolidine-2-carboxylic acid]		100 to 1000
CCc1cc(C(=O)c2ccc(OC)cc2)c(NC(=O)CC2(CC(=O)O)CCCC2)s1 [Example 6, (1-{[5-Ethyl-3-(4-methoxy-benzoyl)-thiophen-2-ylcarbamoyl]-methyl}-cyclopentyl)-acetic acid]	1000 to 30000	
CCc1cc(C(=O)c2ccc(OC(F)(F)F)cc2)c(NC(=O)c2ccc(OC(C)(C)C(=O)O)cc2)s1 [Example 102, 2-{4-[5-Ethyl-3-(4-trifluoromethoxy-benzoyl)-thiophen-2-ylcarbamoyl]-phenoxy}-2-methyl-propionic acid]	100 to 1000	
CCc1cc(C(=O)c2ccc(OC(F)(F)F)cc2)c(NC(=O)CN2[C@@H](C(=O)O)CC[C@@H]2C(C)C)s1 [Example 185, (2R,5R)-1-{[5-Ethyl-3-(4-trifluoromethoxy-benzoyl)-thiophen-2-ylcarbamoyl]-methyl}-5-isopropyl-pyrrolidine-2-carboxylic acid]		< 100
CCc1cc(C(=O)c2ccc(OC(F)(F)F)c(F)c2)c(NC(=O)CCC(C)(C)C(=O)O)s1 [Example 148, 4-[5-Ethyl-3-(3-fluoro-4-trifluoromethoxy-benzoyl)-thiophen-2-ylcarbamoyl]-2,2-dimethyl-butyric acid]		100 to 1000
CCc1cc(C(=O)c2ccc(OC(F)(F)F)cc2)c(NC(=O)CC2(CC(=O)O)CCCC2)s1 [Example 4, (1-{[5-Ethyl-3-(4-trifluoromethoxy-benzoyl)-thiophen-2-ylcarbamoyl]-methyl}-cyclopentyl)-acetic acid]	100 to 1000	
CCc1cc(C(=O)c2ccc(-c3cncnc3)cc2)c(NC(=O)CSCC(=O)O)s1 [Example 41, {[5-Ethyl-3-(4-pyrimidin-5-yl-benzoyl)-thiophen-2-ylcarbamoyl]-methylsulfanyl}-acetic acid]	1000 to 30000	
CCc1cc(C(=O)c2ccc(OC(F)(F)F)cc2)c(NC(=O)c2ccc(OCC(=O)O)c(C)c2)s1 [Example 101, {4-[5-Ethyl-3-(4-trifluoromethoxy-benzoyl)-thiophen-2-ylcarbamoyl]-2-methyl-phenoxy}-acetic acid]	< 100	
CCc1cc(C(=O)c2cccc3ccccc23)c(NC(=O)CSCC(=O)O)s1 [Example 46, {[5-Ethyl-3-(naphthalene-1-carbonyl)-thiophen-2-ylcarbamoyl]-methylsulfanyl}-acetic acid]	1000 to 30000	
CCc1cc(C(=O)c2ccc(OC(F)(F)F)cc2)c(NC(=O)C(CC)NCC(=O)O)s1 (stereo not shown) [Example 121, {1-[5-Ethyl-3-(4-trifluoromethoxy-benzoyl)-thiophen-2-ylcarbamoyl]-propylamino}-acetic acid]		100 to 1000
